Experimental data from patent US11472788B2, “Benzoimidazoles as selective inhibitors of indoleamine 2,3-dioxygenases” (BEIGENE, LTD., priority 2017, dated 2022).

These compounds were tested against cellular IDO1 in HeLa cells (Homo sapiens (Human), UniProt P14902) (assay: HeLa Cell-Based IDO1 Kyn (Kynurenine) Production Assay). Details: IFN-γ induced IDO1, 48 hours incubation, Kyn absorbance at 480 nm.
Protocol: HeLa Cell-Based IDO1 Kyn (Kynurenine) Production Assay:
The inhibitory activity of IDO1 inhibitors is determined by using a colorimetric reaction to measure Kyn generated from L-Trp (L-Tryptophon) oxidation by cellular IDO1 in HeLa cells after induction of IDO1 expression by IFN-γ.
Hela cells were obtained from the American Type Culture Collection and recovered in 10% FBS-containing phenol red-free DMEM medium. Cells were plated onto a 96-well plate (100 μl/well) at 8000 cells per well and kept at 37° C. in a humidified incubator supplied with 5% CO2. 4 hours later, Human recombinant IFN-γ (8901SC, CST) was added to cells (final concentration 100 ng/mL) to stimulate endogenous IDOL. Compounds at different concentrations diluted in dimethylsulfoxide (DMSO) were added simultaneously with IFN-γ and 0.4 mM L-Trp. Cells were kept at 37° C. in a humidified incubator supplied with 5% CO2. After 48 hours of incubation, 100 μl supernatant from each well was removed to a new plate. The protein in the medium was precipitated with the addition of 8 μl 6N trichloroacetic acid. The plate was incubated at 60° C. for 30 minutes and then centrifugation at 2500 rpm for 10 minutes to remove sediments. 80 μl supernatants were carefully removed to a new clean plate and added with an equal volume of 2% 4-(Dimethylamino)benzaldehyde (D2004, sigma) dissolved in glacial acetic acid. The absorbance at 480 nm wavelength derived from Kyn was measured using a PHERAstar FS plate reader (BMG LABTECH). The IC5C for each compound was derived from fitting the dose-response data to the four-parameter logistic model by using XLfit software (IDBS).

Sequence of cellular IDO1 in HeLa cells (P14902 whole entry): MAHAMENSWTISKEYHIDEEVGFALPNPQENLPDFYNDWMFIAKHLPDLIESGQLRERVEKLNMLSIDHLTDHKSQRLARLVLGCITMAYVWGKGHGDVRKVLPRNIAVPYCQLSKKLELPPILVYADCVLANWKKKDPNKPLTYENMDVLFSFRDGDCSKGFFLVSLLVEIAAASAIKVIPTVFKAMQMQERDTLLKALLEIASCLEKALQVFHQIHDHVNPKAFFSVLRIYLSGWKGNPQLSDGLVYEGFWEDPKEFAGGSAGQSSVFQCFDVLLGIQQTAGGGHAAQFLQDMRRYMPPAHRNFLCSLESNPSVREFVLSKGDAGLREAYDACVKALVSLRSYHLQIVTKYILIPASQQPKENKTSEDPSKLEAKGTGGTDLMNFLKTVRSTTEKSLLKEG

Compared with `Fc1ccc2nccc(C3CCN(Cc4nc5cc(Cl)ccc5[nH]4)CC3)c2c1` [Example A39, 4-(1-((5-chloro-1H-benzo[d]imidazol-2-yl)methyl)piperidin-4-yl)-6-fluoroquinoline], `C[C@@H](c1nc2cc(C(F)(F)F)ccc2[nH]1)[C@H]1CC[C@@H](c2ccnc3ccc(F)cc32)CC1` [Example B4, 6-fluoro-4-((1S,4s)-4-((R)-1-(5-(trifluoromethyl)-1H-benzo[d]imidazol-2-yl)ethyl)cyclohexyl)quinoline] is 110-fold lower in EC50: 150 nM for the first, 1.4 nM for the second.

First: C[C@H](c1nc2cc(F)c(F)cc2[nH]1)[C@H]1CC[C@@H](c2ccnc3ccc(F)cc32)CC1 [Example B1b, 4-((1R,4s)-4-((S)-1-(5,6-difluoro-1H-benzo[d]imidazol-2-yl)ethyl)cyclohexyl)-6-fluoroquinoline]
Second: C[C@@H](c1nc2cc(Cl)c(F)cc2[nH]1)[C@H]1CC[C@@H](c2ccnc3ccc(F)cc32)CC1 [Example B2, 4-((1S,4s)-4-((R)-1-(5-chloro-6-fluoro-1H-benzo[d]imidazol-2-yl)ethyl)cyclohexyl)-6-fluoroquinoline]
The EC50 of the first is 62-fold higher: 59 nM for the first, 0.95 nM for the second. The second is the more potent here.

Going from `C[C@@H](c1nc2cc(Cl)c(F)cc2[nH]1)[C@H]1CC[C@@H](c2ccnc3ccc(F)cc32)CC1` [Example B2a, 4-((1R,4s)-4-((S)-1-(5-chloro-6-fluoro-1H-benzo[d]imidazol-2-yl)ethyl)cyclohexyl)-6-fluoroquinoline] to `C[C@H](c1nc2cc(Cl)c(F)cc2[nH]1)[C@H]1CC[C@@H](c2ccnc3ccc(F)cc32)CC1` [Example B2b, 4-((1S,4s)-4-((R)-1-(5-chloro-6-fluoro-1H-benzo[d]imidazol-2-yl)ethyl)cyclohexyl)-6-fluoroquinoline], the EC50 rises from 0.38 nM to 50 nM (130-fold). The first is the more potent here.

Going from `COC(=O)c1ccc2[nH]c(C(C)C3CCC(c4ccnc5ccc(F)cc45)CC3)nc2c1` (stereo not drawn) [Example B3, methyl 2-(1-(4-(6-fluoroquinolin-4-yl)cyclohexyl)ethyl)-1H-benzo[d]imidazole-5-carboxylate] to `COC(=O)c1ccc2[nH]c([C@@H](C)[C@H]3CC[C@@H](c4ccnc5ccc(F)cc54)CC3)nc2c1` [Example B3a, methyl 2-((S)-1-((1s,4R)-4-(6-fluoroquinolin-4-yl)cyclohexyl)ethyl)-1H-benzo[d]imidazole-5-carboxylate], the EC50 falls from 1.3 nM to 0.55 nM (2.4-fold). The second is the more potent here.

Going from `COC(=O)c1ccc2[nH]c([C@H](C)[C@H]3CC[C@@H](c4ccnc5ccc(F)cc54)CC3)nc2c1` [Example B3b, methyl 2-((R)-1-((1s,4S)-4-(6-fluoroquinolin-4-yl)cyclohexyl)ethyl)-1H-benzo[d]imidazole-5-carboxylate] to `CCOC(=O)c1ccc2[nH]c([C@H](C)[C@H]3CC[C@@H](c4ccnc5ccc(F)cc54)CC3)nc2c1` [Example B17, ethyl 2-((R)-1-((1s,4S)-4-(6-fluoroquinolin-4-yl)cyclohexyl)ethyl)-1H-benzo[d]imidazole-5-carboxylate], the EC50 falls from 81 nM to 0.58 nM (140-fold).

Going from `C[C@@H](c1nc2c(F)cc(F)c(F)c2[nH]1)[C@H]1CC[C@@H](c2ccnc3ccc(F)cc32)CC1` [Example B5, 6-fluoro-4-((1S,4s)-4-((R)-1-(4,6,7-trifluoro-1H-benzo[d]imidazol-2-yl)ethyl)cyclohexyl)quinoline] to `C[C@@H](c1nc2c(Cl)c(F)cc(F)c2[nH]1)[C@H]1CC[C@@H](c2ccnc3ccc(F)cc32)CC1` [Example B123, 4-((1S,4s)-4-((R)-1-(4-chloro-5,7-difluoro-1H-benzo[d]imidazol-2-yl)ethyl)cyclohexyl)-6-fluoroquinoline], the EC50 rises from 1.4 nM to 6.79 nM (4.9-fold). The first is the more potent here.

First: C[C@H](c1nc2ccc(C#N)cc2[nH]1)[C@H]1CC[C@@H](c2ccnc3ccc(F)cc32)CC1 [Example B8, 2-((S)-1-((1s,4R)-4-(6-fluoroquinolin-4-yl)cyclohexyl)ethyl)-1H-benzo[d]imidazole-6-carbonitrile]
Second: CC(c1nc2ccc(N)cc2[nH]1)[C@H]1CC[C@@H](c2ccnc3ccc(F)cc32)CC1 (stereo partly drawn) [Example B169, 2-(1-((1s,4s)-4-(6-fluoroquinolin-4-yl)cyclohexyl)ethyl)-1H-benzo[d]imidazol-6-amine]
The EC50 of the first is 2.8-fold lower: 6.9 nM for the first, 19.6 nM for the second.

`C[C@@H](c1nc2cc(C(=O)N(C)C)ccc2[nH]1)[C@H]1CC[C@@H](c2ccnc3ccc(F)cc32)CC1` [Example B12, 2-((R)-1-((1s,4S)-4-(6-fluoroquinolin-4-yl)cyclohexyl)ethyl)-N,N-dimethyl-1H-benzo[d]imidazole-5-carboxamide] and `CC(c1nc2cc(C(=O)N(C)C)ccc2[nH]1)[C@H]1CC[C@@H](c2ccnc3ccc(F)cc32)CC1` (stereo partly drawn) [Example B160, 2-(1-((1s,4s)-4-(6-fluoroquinolin-4-yl)cyclohexyl)ethyl)-N,N-dimethyl-1H-benzo[d]imidazole-5-carboxamide] are the same in EC50: 46 nM for the first, 46 nM for the second.

Compared with `C[C@H](c1nc2ccc(Cl)cc2[nH]1)C1CCC(c2cnc3ccccc3c2)CC1` (stereo partly drawn) [Example B25a, (S)-3-(4-(1-(6-chloro-1H-benzo[d]imidazol-2-yl)ethyl)cyclohexyl)quinoline], `C[C@@H](c1nc2ccc(Cl)cc2[nH]1)C1CCC(c2cnc3ccccc3c2)CC1` (stereo partly drawn) [Example B25b, (R)-3-(4-(1-(6-chloro-1H-benzo[d]imidazol-2-yl)ethyl)cyclohexyl)quinoline] is 1.6-fold lower in EC50: 5.1 nM for the first, 3.1 nM for the second.

Compared with `C[C@@H](c1nc2c(F)c(F)cc(Cl)c2[nH]1)[C@H]1CC[C@@H](c2ccnc3ccc(F)cc32)CC1` [Example B124, 4-((1S,4s)-4-((R)-1-(7-chloro-4,5-difluoro-1H-benzo[d]imidazol-2-yl)ethyl)cyclohexyl)-6-fluoroquinoline], `C[C@@H](c1nc2c(Cl)c(F)c(F)cc2[nH]1)[C@H]1CC[C@@H](c2ccnc3ccc(F)cc32)CC1` [Example B125, 4-((1S,4s)-4-((R)-1-(4-chloro-5,6-difluoro-1H-benzo[d]imidazol-2-yl)ethyl)cyclohexyl)-6-fluoroquinoline] is 1.9-fold lower in EC50: 16.4 nM for the first, 8.79 nM for the second.

Compared with `C[C@@H](c1nc2ccc(NS(C)(=O)=O)cc2[nH]1)[C@H]1CC[C@@H](c2ccnc3ccc(F)cc32)CC1` [Example B136, N-(2-((R)-1-((1s,4S)-4-(6-fluoroquinolin-4-yl)cyclohexyl)ethyl)-1H-benzo[d]imidazol-6-yl)methanesulfonamide], `C[C@@H](c1nc2ccc(S(C)(=O)=O)cc2[nH]1)[C@H]1CC[C@@H](c2ccnc3ccc(F)cc32)CC1` [Example B138, 6-fluoro-4-((1S,4s)-4-((R)-1-(6-(methylsulfonyl)-1H-benzo[d]imidazol-2-yl)ethyl)cyclohexyl)quinoline] is 16-fold lower in EC50: 296 nM for the first, 18.8 nM for the second.

First: COC(=O)c1cc(C)c2nc([C@H](C)[C@H]3CC[C@@H](c4ccnc5ccc(F)cc54)CC3)[nH]c2c1 [Example B141, methyl 2-((R)-1-((1s,4S)-4-(6-fluoroquinolin-4-yl)cyclohexyl)ethyl)-4-methyl-1H-benzo[d]imidazole-6-carboxylate]
Second: CC(c1nc2ccc(C(=O)O)cc2[nH]1)[C@H]1CC[C@@H](c2ccnc3ccc(F)cc32)CC1 (stereo partly drawn) [Example B163, 2-(1-((1s,4s)-4-(6-fluoroquinolin-4-yl)cyclohexyl)ethyl)-1H-benzo[d]imidazole-6-carboxylic acid]
The EC50 of the first is 82-fold lower: 6.89 nM for the first, 567 nM for the second. The first is the more potent here.

`CC(c1nc2cc3c(=O)[nH]cnc3cc2[nH]1)[C@H]1CC[C@@H](c2ccnc3ccc(F)cc32)CC1` (stereo partly drawn) [Example B151, 2-(1-((1s,4s)-4-(6-fluoroquinolin-4-yl)cyclohexyl)ethyl)-3,7-dihydro-8H-imidazo[4,5-g]quinazolin-8-one] and `CC(c1nc2cc3c(cc2[nH]1)CCC(=O)N3)[C@H]1CC[C@@H](c2ccnc3ccc(F)cc32)CC1` (stereo partly drawn) [Example B159, 2-(1-((1s,4s)-4-(6-fluoroquinolin-4-yl)cyclohexyl)ethyl)-1,5,7,8-tetrahydro-6H-imidazo[4,5-g]quinolin-6-one] are within 1.5-fold of each other in EC50: 82.3 nM for the first, 67.7 nM for the second.

Going from `C[C@@H](c1nc2cc(-c3ncccn3)ccc2[nH]1)[C@H]1CC[C@@H](c2ccnc3ccc(F)cc32)CC1` [Example B157, 6-fluoro-4-((1S,4s)-4-((R)-1-(5-(pyrimidin-2-yl)-1H-benzo[d]imidazol-2-yl)ethyl)cyclohexyl)quinoline] to `CC(c1nc2cc3ccccc3cc2[nH]1)[C@H]1CC[C@@H](c2ccnc3ccc(F)cc32)CC1` (stereo partly drawn) [Example B166, 2-(1-((1s,4s)-4-(6-fluoroquinolin-4-yl)cyclohexyl)ethyl)-1H-naphtho[2,3-d]imidazole], the EC50 rises from 3.8 nM to 251 nM (66-fold). The first is the more potent here.

First: CC(c1nc2ccc(C(=O)NC3CCC3)cc2[nH]1)[C@H]1CC[C@@H](c2ccnc3ccc(F)cc32)CC1 (stereo partly drawn) [Example B164, N-cyclobutyl-2-(1-((1s,4s)-4-(6-fluoroquinolin-4-yl)cyclohexyl)ethyl)-1H-benzo[d]imidazole-6-carboxamide]
Second: CC(c1nc2ccc(S(C)(=O)=O)cc2[nH]1)[C@H]1CC[C@@H](c2ccnc3ccc(F)cc32)CC1 (stereo partly drawn) [Example B167, 6-fluoro-4-((1s,4s)-4-(1-(6-(methylsulfonyl)-1H-benzo[d]imidazol-2-yl)ethyl)cyclohexyl)quinoline]
The EC50 of the first is 3.2-fold lower: 5.8 nM for the first, 18.8 nM for the second. The first is the more potent here.
